Source: PubChem BioAssay (NCI)
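Each compound was tested at five concentrations against cells in 96-well plates for 48 hours. Here, GI50 denotes the concentration required for 50% inhibition of growth. TGI denotes the concentration required for complete inhibition of growth.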

Assays:
Experiment in all cases: NCI-60 cell line screen, 48 h
A498 renal = tested on: A498 renal
OVCAR-3 ovarian = tested on: OVCAR-3 ovarian
CCRF-CEM leukemia = tested on: CCRF-CEM leukemia
OVCAR-4 ovarian = tested on: OVCAR-4 ovarian
SR leukemia = tested on: SR leukemia
HCT-116 colon = tested on: HCT-116 colon
DU-145 prostate = tested on: DU-145 prostate
NCI-H522 lung = tested on: NCI-H522 lung
U251 CNS = tested on: U251 CNS
CAKI-1 renal = tested on: CAKI-1 renal

SMILES	GI50 (A498 renal) [µM]	TGI (A498 renal) [µM]	GI50 (OVCAR-3 ovarian) [µM]	TGI (OVCAR-3 ovarian) [µM]	GI50 (CCRF-CEM leukemia) [µM]	TGI (CCRF-CEM leukemia) [µM]	GI50 (OVCAR-4 ovarian) [µM]	TGI (OVCAR-4 ovarian) [µM]	GI50 (SR leukemia) [µM]	TGI (SR leukemia) [µM]	GI50 (HCT-116 colon) [µM]	TGI (HCT-116 colon) [µM]	GI50 (DU-145 prostate) [µM]	TGI (DU-145 prostate) [µM]	GI50 (NCI-H522 lung) [µM]	TGI (NCI-H522 lung) [µM]	GI50 (U251 CNS) [µM]	TGI (U251 CNS) [µM]	GI50 (CAKI-1 renal) [µM]	TGI (CAKI-1 renal) [µM]
CCCc1cc2cc(-n3nc(C)c4c3CC(C)(C)CC4=O)cc(NC3CCC(O)CC3)c2c(=O)[nH]1 (configuration not stated)	0.437	> 100	0.58	> 100	0.278	> 100	> 39.6	> 100	0.122	> 100	0.0634	> 100	0.0527	> 100	0.257	> 100	0.607	> 100	–	–
COc1ccc(N(CC(=O)NCCC[Te]c2ccccc2)C(=O)CCSC2=C(C)C(=O)c3ccccc3C2=O)cc1	1.96	4.61	1.44	3.19	0.508	–	2.95	11.2	0.498	> 100	0.406	1.72	1.44	3.24	0.948	3.59	0.553	2.32	2.25	6.24
Cc1cccc2c(N=Nc3ccc(S(N)(=O)=O)cc3)c(O)[nH]c12	> 25	> 25	> 25	> 25	> 25	> 25	> 25	> 25	> 25	> 25	> 25	> 25	> 25	> 25	> 25	> 25	> 25	> 25	> 25	> 25
N#CC(=S)Nc1ccc(Cl)c(Cl)c1	–	51.8	–	54.3	–	15.2	5.67	> 100	–	67.4	–	> 50	–	> 100	3.73	24.2	–	> 85.1	–	55.1
O=[N+]([O-])c1cc(CCl)ccc1CCl	–	16.1	–	3.27	–	3.14	–	3.22	–	5.17	–	3.26	–	2.99	–	3.98	–	3.14	–	2.76
COc1ccc(-c2nn(-c3cccc(NC(=O)Nc4ccc(Cl)c(C(F)(F)F)c4)c3)cc2-c2ccncc2)cc1Cl	2.4	8.01	–	–	1.9	6.4	2.9	9.8	1.82	5.65	2.02	8.6	4.47	> 100	1.85	6.77	1.32	3.34	2.18	> 100
CN1CCC[C@@H]1CCO[C@](C)(c1ccccc1)c1ccc(Cl)cc1	10.7	23	7.96	20.8	–	–	8.46	22	2.32	9.59	3.62	13.7	12.6	25.2	4.63	17.1	3.83	15.8	7.12	21.5
c1cc(OCCN2CCCCCC2)ccc1CNc1ccc2nc(CCC3CCCCC3)[nH]c2c1	1.94	4.95	1.89	4.25	2.08	10.1	3.2	13.8	1.73	5.34	1.62	3.14	3.9	14.6	1.97	4.34	1.6	3.17	1.98	4.05
CCN(CC)CCOc1ccc(/C(=C(\C)Cc2ccc(OC)cc2)c2ccc(OC(=O)NCc3ccccc3)cc2)cc1	4.3	17.7	1.85	3.47	2.34	6.45	2.47	7.51	1.99	4.31	1.57	2.97	2.24	5.56	1.93	4.24	1.83	3.43	2.27	6.53
O=C1N=C(c2ccccc2)OC1C(=O)c1ccccc1 (configuration not stated)	–	> 100	–	> 100	–	> 100	–	> 100	–	> 100	–	> 100	–	> 100	–	> 100	–	> 100	–	> 100
O=C(Nc1nccs1)c1cc2c(cc1Cl)Sc1nccn1S2(=O)=O	19.2	34.8	15	28.3	5.05	24.8	16.4	38.6	3	11.9	16.1	29.5	16.3	30	1.23	2.85	17.2	31	8.5	36.9
O=C(O)C1NCCc2c1[nH]c1ccccc21 (configuration not stated)	> 100	> 100	> 100	> 100	> 100	> 100	> 100	> 100	> 100	> 100	> 100	> 100	–	> 10	> 100	> 100	> 100	> 100	> 100	> 100
ClCc1ccc(-c2ccc(Cn3cnc4c(Cl)nc(Cl)nc43)cc2)cc1	2.33	11.4	1.65	3.05	2.36	5.9	3.39	13.3	1.9	6.43	1.58	2.92	1.58	2.94	2.33	6.79	1.89	3.64	1.84	4.32
O=C1OCc2c1cc(F)cc2[N+](=O)[O-]	> 100	> 100	> 100	> 100	> 100	> 100	> 100	> 100	> 100	> 100	> 100	> 100	> 100	> 100	> 100	> 100	> 100	> 100	> 100	> 100
C=C1C(=O)O[C@@H]2C(=O)[C@@H](C)[C@@H]3C=CC(=O)[C@@]3(C)[C@@H](OC(=O)/C(C)=C\C)[C@H]12	–	3.44	–	3.67	–	2.24	–	18.2	–	0.712	–	0.681	–	3.5	–	0.25	–	6.67	–	0.686
O=C(Nc1ccccc1)Nc1cccc(-n2cc(-c3ccncc3)c(-c3ccc(O)c(Cl)c3)n2)c1	2.5	8.37	–	–	3.22	27.5	3.45	25.7	2.35	6.29	3.41	13.9	5.66	> 100	2.26	6.73	2.17	6.06	2.92	14.3
S=c1nc2[nH]ncc2c(N/N=C/c2ccccc2)[nH]1	15.3	73.4	48.5	> 100	78.6	> 100	> 100	> 100	> 100	> 100	87.9	> 100	> 100	> 100	> 100	> 100	93.8	> 100	31.9	> 100
CCOC(=O)c1c(-c2ccccc2)[n+](=O)c2ccc(Cl)cc2n1[O-]	12.7	26.2	3.88	15.8	–	–	4.25	22.9	2.59	11	3.72	16.4	3.22	11.9	> 100	> 100	2.68	8.57	3.82	13.2
O=C(O)CC(Nc1ccccc1)C(=O)O (configuration not stated)	–	> 100	–	> 100	–	> 100	–	> 100	–	> 100	–	> 100	–	> 100	–	> 100	–	> 100	–	> 100
COc1ccc2c(c1)CCc1c(-c3noc4c3CCc3cc(OC)ccc3-4)noc1-2	–	> 100	–	> 100	–	–	–	> 100	–	> 100	–	> 100	–	> 100	–	> 100	–	> 100	–	> 100
COc1ccc(/C=C2\CN(Cc3cn(CCCNc4ccnc5cc(Cl)ccc45)nn3)C/C(=C\c3ccc(OC)c(OC)c3)C2=O)cc1OC	1.17	2.58	0.463	1.68	0.571	8.65	1.11	18.1	0.382	12	0.577	2.1	1.1	2.31	1.32	3.06	1.19	3.88	–	–
